Legend:
glucagon receptor [1] = target: glucagon receptor (Rattus norvegicus, UniProt P30082); test: Experiment for glucagon binding inhibition, rat hepatic membrane (125I-glucagon); details: male SD rat hepatic membrane, 125I-glucagon 50 pM, 25° C. for 30 minutes; read-out: Glucagon binding inhibitory activity IC50 (nM) Rat
Method: (§1) The preparation of membrane from mouse and rat livers was carried out according to the method described in Bioorg. Med. Chem. Lett. 1992, 12, 915-918 in this experiment and ^125I-glucagon binding activity was measured with these membranes as glucagon receptor's samples. Livers were removed from male SD rats (about 250 g body weight per rat) and male ddY mice (about 30 g body weight per mouse). […] The homogenate was centrifuged for 15 minutes at 30,000×g. […] The precipitaion thus obtained was used as a hepatic membrane sample. […] The mixture was incubated at 25° C. for 30 minutes. […] The filter was washed 3 times with 50 mM Tris-HCl buffer (pH 7.2), and the radioactivity of the filter was measured by a γ counter (ARC-360, Aloka Co., Ltd.). […] Each experiment was carried out in duplicate. […] The concentration at 50% inhibition of binding (IC50) was calculated using a pseudo Hill plot.

glucagon receptor [2] = target: glucagon receptor (Mus musculus, UniProt Q61606); test: Experiment for glucagon binding inhibition, mouse hepatic membrane (125I-glucagon); details: male ddY mouse hepatic membrane, 125I-glucagon 50 pM, 25° C. for 30 minutes; read-out: Glucagon binding inhibitory activity IC50 (nM) Mouse
Sequence of glucagon receptor (Mus musculus, UniProt Q61606) (Q61606 27-485): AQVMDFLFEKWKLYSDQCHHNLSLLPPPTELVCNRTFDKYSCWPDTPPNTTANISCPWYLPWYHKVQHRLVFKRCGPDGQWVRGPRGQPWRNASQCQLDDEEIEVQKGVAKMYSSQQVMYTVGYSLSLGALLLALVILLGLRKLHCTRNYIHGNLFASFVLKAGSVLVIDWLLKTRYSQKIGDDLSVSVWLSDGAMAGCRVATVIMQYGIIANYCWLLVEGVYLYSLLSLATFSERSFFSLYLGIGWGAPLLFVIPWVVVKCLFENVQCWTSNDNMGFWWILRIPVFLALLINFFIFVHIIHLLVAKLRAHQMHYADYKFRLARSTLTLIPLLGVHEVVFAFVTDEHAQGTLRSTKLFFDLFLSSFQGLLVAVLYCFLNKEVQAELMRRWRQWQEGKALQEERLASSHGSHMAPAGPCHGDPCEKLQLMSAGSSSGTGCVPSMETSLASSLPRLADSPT
Method: as §1

Sequence of glucagon receptor (Rattus norvegicus, UniProt P30082) (P30082 27-485): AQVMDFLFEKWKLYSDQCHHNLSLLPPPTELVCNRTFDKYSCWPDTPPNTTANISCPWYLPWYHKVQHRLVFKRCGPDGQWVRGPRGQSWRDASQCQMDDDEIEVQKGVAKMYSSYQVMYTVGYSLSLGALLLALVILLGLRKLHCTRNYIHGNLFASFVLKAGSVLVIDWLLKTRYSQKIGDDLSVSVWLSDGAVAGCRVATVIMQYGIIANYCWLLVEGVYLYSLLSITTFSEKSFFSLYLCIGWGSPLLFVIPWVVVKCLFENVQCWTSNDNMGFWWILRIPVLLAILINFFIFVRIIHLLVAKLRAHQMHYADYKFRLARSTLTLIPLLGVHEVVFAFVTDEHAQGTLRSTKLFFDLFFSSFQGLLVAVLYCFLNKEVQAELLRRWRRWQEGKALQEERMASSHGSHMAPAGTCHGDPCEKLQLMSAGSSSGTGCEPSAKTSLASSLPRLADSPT

SMILES	IC50 (glucagon receptor [1]) [nM]	IC50 (glucagon receptor [2]) [nM]
Cc1cc(C)c(C)c(COc2cccc(-c3ccoc3C(=O)NNC(=O)c3ccc(O)c(C#N)c3)c2)c1C [Example 1, 3-[3-(2,3,5,6-tetramethylbenzyloxy)phenyl]-2-furancarboxylic acid 2-(3-cyano-4-hydroxybenzoyl)hydrazide]	21	99
N#Cc1cc(C(=O)NNC(=O)c2occc2-c2cccc(Oc3ccccc3)c2)ccc1O [Example 2, 3-(3-phenoxyphenyl)-2-furancarboxylic acid 2-(3-cyano-4-hydroxybenzoyl)hydrazide]	330	140
N#Cc1cc(C(=O)NNC(=O)c2occc2-c2cccc(OCc3ccccc3)c2)ccc1O [Example 3, 3-(3-benzyloxyphenyl)-2-furancarboxylic acid 2-(3-cyano-4-hydroxybenzoyl)hydrazide]	30	52
N#Cc1cc(C(=O)NNC(=O)c2occc2-c2cccc(OCCc3ccccc3)c2)ccc1O [Example 4, 3-(3-phenethyloxyphenyl)-2-furancarboxylic acid 2-(3-cyano-4-hydroxybenzoyl)hydrazide]	28	130
N#Cc1cc(C(=O)NNC(=O)c2occc2-c2ccccc2OCc2ccccc2)ccc1O [Example 5, 3-(2-benzyloxyphenyl)-2-furancarboxylic acid 2-(3-cyano-4-hydroxybenzoyl)hydrazide]	200	130
N#Cc1cc(C(=O)NNC(=O)c2occc2-c2ccccc2Cc2ccccc2)ccc1O [Example 8, 3-(2-benzylphenyl)-2-furancarboxylic acid 2-(3-cyano-4-hydroxybenzoyl)hydrazide]	170	310
Cc1cc(C)c(C)c(COc2ccccc2-c2ccoc2C(=O)NNC(=O)c2ccc(O)c(C#N)c2)c1C [Example 9, 3-[2-(2,3,5,6-tetramethylbenzyloxy)phenyl]-2-furancarboxylic acid 2-(3-cyano-4-hydroxybenzoyl)hydrazide]	210	75
CC(C)Oc1ccccc1-c1ccoc1C(=O)NNC(=O)c1ccc(O)c(C#N)c1 [Example 10, 3-(2-isopropoxyphenyl)-2-furancarboxylic acid 2-(3-cyano-4-hydroxybenzoyl)hydrazide]	180	230
CCCOc1ccccc1-c1ccoc1C(=O)NNC(=O)c1ccc(O)c(C#N)c1 [Example 11, 3-(2-propoxyphenyl)-2-furancarboxylic acid 2-(3-cyano-4-hydroxybenzoyl)hydrazide]	140	450
N#Cc1cc(C(=O)NNC(=O)c2occc2-c2ccccc2OCCc2ccccc2)ccc1O [Example 12, 3-(2-phenethyloxyphenyl)-2-furancarboxylic acid 2-(3-cyano-4-hydroxybenzoyl)hydrazide]	85	170
N#Cc1cc(C(=O)NNC(=O)c2occc2-c2ccccc2Oc2ccccc2)ccc1O [Example 13, 3-(2-phenoxyphenyl)-2-furancarboxylic acid 2-(3-cyano-4-hydroxybenzoyl)hydrazide]	190	180
Cc1cc(C)c(C)c(COc2ccc(-c3ccoc3C(=O)NNC(=O)c3ccc(O)c(C#N)c3)cc2)c1C [Example 15, 3-[4-(2,3,5,6-tetramethylbenzyloxy)phenyl]-2-furancarboxylic acid 2-(3-cyano-4-hydroxybenzoyl)hydrazide]	27	170
N#Cc1cc(C(=O)NNC(=O)c2occc2-c2ccc(Oc3ccccc3)cc2)ccc1O [Example 16, 3-(4-phenoxyphenyl)-2-furancarboxylic acid 2-(3-cyano-4-hydroxybenzoyl)hydrazide]	87	180

Results, then the compound that gave them:

IC50 (glucagon receptor [1]) [nM]	IC50 (glucagon receptor [2]) [nM]	SMILES
99	160	N#Cc1cc(C(=O)NNC(=O)c2occc2-c2ccc(OCc3ccccc3)cc2)ccc1O [Example 17, 3-(4-benzyloxyphenyl)-2-furancarboxylic acid 2-(3-cyano-4-hydroxybenzoyl)hydrazide]
41	120	N#Cc1cc(C(=O)NNC(=O)c2occ(-c3ccccc3)c2-c2ccccc2)ccc1O [Example 18, 3,4-diphenyl-2-furancarboxylic acid 2-(3-cyano-4-hydroxybenzoyl)hydrazide]
86	97	O=C(NNC(=O)c1occ(-c2ccccc2)c1-c1ccccc1)c1ccc(O)c([N+](=O)[O-])c1 [Example 19, 3,4-diphenyl-2-furancarboxylic acid 2-(4-hydroxy-3-nitrobenzoyl)hydrazide]
9.2	24	Cc1cc(C)c(C)c(COc2cccc(-c3ccoc3C(=O)NNC(=O)c3ccc(O)c([N+](=O)[O-])c3)c2)c1C [Example 20, 3-[3-(2,3,5,6-tetramethylbenzyloxy)phenyl]-2-furancarboxylic acid 2-(4-hydroxy-3-nitrobenzoyl)hydrazide]
160	390	O=C(NNC(=O)c1occ(-c2ccccc2)c1-c1ccccc1)c1ccc(O)c(C(F)(F)F)c1 [Example 43, 3,4-diphenyl-2-furancarboxylic acid 2-(4-hydroxy-3-trifluoromethylbenzoyl)hydrazide]
75	240	N#Cc1cc(C(=O)NNC(=O)c2occ(COC(=O)Nc3ccccc3)c2-c2ccccc2)ccc1O [Example 53, 4-(phenylaminocarbonyloxymethyl)-3-phenyl-2-furancarboxylic acid 2-(3-cyano-4-hydroxybenzoyl)hydrazide]
150	380	N#Cc1cc(C(=O)NNC(=O)c2occ(COC(=O)NCCc3ccccc3)c2-c2ccccc2)ccc1O [Example 54, 4-(Phenethylaminocarbonyloxymethyl)-3-phenyl-2-furancarboxylic acid 2-(3-cyano-4-hydroxybenzoyl)hydrazide]
150	220	N#Cc1cc(C(=O)NNC(=O)c2occ(COCc3ccccc3)c2-c2ccccc2)ccc1O [Example 56, 4-Benzyloxymethyl-3-phenyl-2-furancarboxylic acid 2-(3-cyano-4-hydroxybenzoyl)hydrazide]
35	84	N#Cc1cc(C(=O)NNC(=O)c2occ(C=CCCc3ccccc3)c2-c2ccccc2)ccc1O [Example 59, 3-Phenyl-4-(4-phenyl-1-butenyl)-2-furancarboxylic acid 2-(3-cyano-4-hydroxybenzoyl)hydrazide]
120	160	N#Cc1cc(C(=O)NNC(=O)c2occc2-c2cccs2)ccc1O [Example 60, 3-(2-thienyl)-2-furancarboxylic acid 2-(3-cyano-4-hydroxybenzoyl)hydrazide]
58	200	N#Cc1cc(C(=O)NNC(=O)c2occc2-c2ccccc2)ccc1O [Example 61, 3-phenyl-2-furancarboxylic acid 2-(3-cyano-4-hydroxybenzoyl)hydrazide]
1.5	4	Cc1cc(C)c(C)c(COc2cccc(-c3c(-c4ccccc4)coc3C(=O)NNC(=O)c3ccc(O)c(C#N)c3)c2)c1C [Example 98, 4-phenyl-3-[3-(2,3,5,6-tetramethylbenzyloxy)phenyl]-2-furancarboxylic acid 2-(3-cyano-4-hydroxybenzoyl)hydrazide]
3.4	13	Cc1cc(C)c(C)c(COc2cccc(-c3coc(C(=O)NNC(=O)c4ccc(O)c(C#N)c4)c3-c3ccccc3)c2)c1C [Example 99, 3-phenyl-4-[3-(2,3,5,6-tetramethylbenzyloxy)phenyl]-2-furancarboxylic acid 2-(3-cyano-4-hydroxybenzoyl)hydrazide]
5.8	9.1	Cc1cc(C)c(C)c(COc2cccc(-c3c(-c4ccccc4)coc3C(=O)NNC(=O)c3ccc(O)c([N+](=O)[O-])c3)c2)c1C [Example 100, 4-phenyl-3-[3-(2,3,5,6-tetramethylbenzyloxy)phenyl]-2-furancarboxylic acid 2-(4-hydroxy-3-nitrobenzoyl)hydrazide]
33	28	O=C(NNC(=O)c1occc1-c1cccc(OCc2ccccc2)c1)c1ccc(O)c([N+](=O)[O-])c1 [Example 101, 3-(3-benzyloxyphenyl)-2-furancarboxylic acid 2-(4-hydroxy-3-nitrobenzoyl)hydrazide]
95	93	N#Cc1cc(C(=O)NNC(=O)c2occc2-c2cccc(OCc3ccncc3)c2)ccc1O [Example 102, 3-[3-(4-pyridylmethyloxy)phenyl]-2-furancarboxylic acid 2-(3-cyano-4-hydroxybenzoyl)hydrazide]
110	310	N#Cc1cc(C(=O)NNC(=O)c2occc2-c2cccc(OCC(O)c3ccccc3)c2)ccc1O (centres unmarked) [Example 108, 3-[3-(2-Hydroxy-2-phenylethoxy)phenyl]-2-furancarboxylic acid 2-(3-cyano-4-hydroxybenzoyl)hydrazide]
54	80	N#Cc1cc(C(=O)NNC(=O)c2occ(-c3cccc(OCc4ccccc4)c3)c2-c2cccc(OCc3ccccc3)c2)ccc1O [Example 115, 3,4-bis(3-benzyloxyphenyl)-2-furancarboxylic acid 2-(3-cyano-4-hydroxybenzoyl)hydrazide]

Source: patent US7514452B2, “2-furancarboxylic acid hydrazides and pharmaceutical compositions containing the same” (Dainippon Pharmaceutical Co., Ltd, priority 2002, dated 2009)
